Test results published in patent US4835160A, “Derivatives of pyridoindole, having anti-tumor properties” (Sanofi, priority 1986, dated 1989).

Assays:
leukemia P388 = assay: Test for leukemia P388, IP/IP, D1; type: in vivo, CDF1 hybrid mice; conditions: for Number of survivors: day D30; for T/C %: survival time
Protocol: (§1) The antitumour activity was tested in vivo on various tumours inoculated in various ways according to the following general protocol:
(§2) All the male or female mice are inoculated on day D0 with a known quantity of viable tumour cells for ascitic tumours or with a known tumour fragment for solid tumours.
(§3) They are then distributed into various groups. Each group, corresponding to the animals treated by the product under test, is made up of 10 mice. The product under test is dissolved in distilled water and it is administered n times (Dx-Dy), n, y, and x varying according to the protocol chosen, at the rate of 0.1 ml of solution per 10 g by weight of mice treated and at specific doses for each protocol.
(§4) The "negative control" group, corresponding to the animals which are not treated by the product, contains 2√N animals, N being equal to or greater than the total number of mice treated by the product in the same experiment.
(§5) Finally, the tests can also be carried out at the same time as the study of a group called "positive control", of ten animals, which is treated by a molecule, known for its antitumour activity and which can vary according to the protocol chosen, in the same conditions as the groups treated by the product under test.
(§6) The antitumour activity is evaluated, in the case of ascitic tumours, by considering the increase in the survival time of the animals treated in comparison to that of the animals in the "negative control" group, according to the formula: [formula]
(§7) Also, a product is considered as toxic at the dose studied when this T/C value is equal to or less than 85%. In addition, a product is also considered as toxic at the dose studied when the weight variation, expressed in grams and calculated by the formula: […]
(§8) The tests are carried out with CDF1 hybrid mice inoculated by intraperitoneal route with 10^6 leukemia cells from the P 388 line. The compound under test is administered for 5 successive days (D1-D5) by intraperitoneal route. The positive control for the test is 5-fluorouracile which is administered in the same conditions. The number of surviving animals is evaluated on day D30.
(b) Test for Leukemia P388, IP/IP, D1 (GERAN et al. Cancer chemother., 1972, 2, 07-57).
The test is carried out according to the preceding protocol, the compound under test being administered only on day D1.

colic adenocarcinoma 38 [1] = assay: Test for colic adenocarcinoma 38, SC/D2,9 IV; type: in vivo, BDF1 hybrid mice; set-up: Average tumour volume at D32: unit not given beside the values; conditions: D2 and D9; for Number of survivors: day D32; for T/C % at D32: tumour volume
Protocol: as §1, §2, §3, §4
(§9) the antitumour activity is evaluated, in the case of solid tumours, by considering the reduction in the average tumour volume of the treated animals in comparison with the animals of the "negative control" group, according to the formula: [formula]
(§10) A value for T/C of less than 42% indicates an activity for the product at the studied dose.
(§11) The tests are carried out with BDF1 hybrid mice inoculated by subcutaneous route with a standardized tumour fragment of 3 mm^3. The compound under test is administered by intravenous route only on day D1.
(i) Test for colic adenocarcinoma 38, SC/D2,9 IV (GERAN et al., Cancer Chemother., 1972, 2, 07-57).
This test is carried out according to the protocol described for test (h), the compound under test being administered by intravenous route on day D2 then on day D9.
The number of surviving animals is evaluated on day D32.

[2] = system: leukemia tumour line L 1210; assay: In vitro cytotoxic activity on leukemia tumour line L 1210; type: cell-based; conditions: L 1210, 48 hours contact, 37° C.; read-out: I D 50 (concentration which inhibits the proliferation of the cells by 50%)
In short: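 Exponentially growing L 1210 leukemia cells were exposed to increasing compound concentrations at 37 °C under CO2 and counted every 24 h. ID50, the concentration inhibiting proliferation by 50%, was calculated after 48 h contact.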

leukemia P 388 [3] = assay: Test for leukemia P 388 IP/D1 IV; type: in vivo, CDF1 hybrid mice; conditions: for Number of survivors: day D30; for T/C %: survival time
Protocol: as §1, §2, §3, §4, §5, §6, §7, §8
(f) Test for leukemia P 388 IP/D1 IV (GERAN et al., Cancer Chemother., 1972, 2, 07-57).
The test is carried out according to the same protocol as that described for test (a), the compound under test being administered by intravenous route only on day D1.

colic adenocarcinoma 38 [4] = assay: Test for colic adenocarcinoma 38, SC/D1 IV; type: in vivo, BDF1 hybrid mice; conditions: 100 mg/kg IV
Protocol: as §1, §2, §3, §4, §9, §10
(h) Test for colic adenocarcinoma 38, SC/D1 IV. (GERAN et al., Cancer Chemother., 1972, 2, 07-57).
as §11
The number of surviving animals is evaluated on day D38.

leukemia P 388 [5] = assay: Test of leukemia P 388; IP/IP, D1-5; type: in vivo, CDF1 hybrid mice; conditions: D1-D5; for Number of survivors: day D30; for T/C %: survival time
In short: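 CDF1 hybrid mice received 10^6 P 388 cells intraperitoneally, then compound in distilled water by intraperitoneal route daily D1-D5, 10 mice per group, 5-fluorouracil as positive control. Activity judged as T/C survival time versus untreated controls, survivors counted at D30; T/C ≤85% or day 5 minus day 1 weight change ≤ −4 g counted as toxic.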

## CCN(CC)CCCNc1ncc(C)c2c1c1cc(O)ccc1n2C [Derivative No. 12, 1-(3-diethylaminopropylamino)-4,5-dimethyl-8-hydroxy-5H-pyrido[4,3-b]indole]
Leukemia P388; 5 mg/kg IP
  Median day of survival: 15.87 days
  Variation by weight (g): +0.1 g
  Number of survivors: 0/10
  T/C %: 139%
Leukemia P388; 10 mg/kg IP
  Median day of survival: 17.75 days
  Variation by weight: -0.6 g
  Number of survivors: 0/10
  T/C %: 156%
Leukemia P388; 20 mg/kg IP
  Median day of survival: 20.75 days
  Variation by weight: -1.2 g
  Number of survivors: 0/10
  T/C %: 182%
Leukemia P388; 40 mg/kg IP
  Median day of survival: 23.0 days
  Variation by weight: -6.2 g
  Number of survivors: 1/10
  T/C %: 202%
Colic adenocarcinoma 38 [1]; 50 mg/kg IV
  Average tumour volume at D32: 1.38
  Number of survivors: 10/10
  T/C % at D32: 18%
Colic adenocarcinoma 38 [1]; 75 mg/kg IV
  Average tumour volume at D32: 0.97
  Number of survivors: 10/10
  T/C % at D32: 13%
[2]
  IC50: 35 nM
Leukemia P 388 [3]; 50 mg/kg IV
  Median day of survival: 19.0 days
  Variation by weight: -0.7 g
  Number of survivors: 0/10
  T/C %: 174%
Leukemia P 388 [3]; 100 mg/kg IV
  Median day of survival: 24.3 days
  Variation by weight: -1.6 g
  Number of survivors: 1/10
  T/C %: 223%
Colic adenocarcinoma 38 [4]
  Average tumour volume at D38: 3.24
Colic adenocarcinoma 38 [4]; day D38
  Number of survivors: 10/10
Colic adenocarcinoma 38 [4]; tumour volume
  T/C % at D38: 36%
Leukemia P 388 [5]; 1.25 mg/kg IP
  Median day of survival: 16.7 days
  Variation by weight: -0.5 g
  Number of survivors: 1/10
  T/C %: 152%
Leukemia P 388 [5]; 2.5 mg/kg IP
  Median day of survival: 18.0 days
  Variation by weight: -1.2 g
  Number of survivors: 0/10
  T/C %: 164%
Leukemia P 388 [5]; 5 mg/kg IP
  Median day of survival: 19.00 days
  Variation by weight: -1.9 g
  Number of survivors: 2/10
  T/C %: 173%
Leukemia P 388 [5]; 10 mg/kg IP
  Median day of survival: 19.3 days
  Number of survivors: 0/10
  T/C %: 176%
Leukemia P 388 [5]; 20 mg/kg IP
  Median day of survival: 9.7 days
  Variation by weight: -5.9 g
  Number of survivors: 0/10
  T/C %: 88%
